Patent publication US20260193294A1, “POLYPEPTIDE INHIBITOR, AND PREPARATION METHOD THEREFOR AND USE THEREOF” (SHANGHAI HANSOH BIOMEDICAL CO., LTD., priority 2022, published 2026)
Positions of bridges follow the written chain, without caps; N, C: chain ends. Non-standard residues stand in square brackets, D forms with d. Residues, ends and D or L forms follow the SMILES beside them. *: point of attachment. X1 = CN(CCNC(=O)CCOCCOCC[N+](C)(C)CCNC(=O)COCCOCCNC(=O)COCCOCCNC(=O)CC[C@H](NC(=O)CCCCCCCCCCCCCCC(=O)O)C(=O)O)*; Trp(7-Me) = Cc1cccc2c(C[C@H](N)C(=O)O)c[nH]c12; 2Nal = N[C@@H](Cc1ccc2ccccc2c1)C(=O)O; AEF = NCCOc1ccc(C[C@H](N)C(=O)O)cc1; 3Pal = N[C@@H](Cc1cccnc1)C(=O)O; Pen = CC(C)(S)[C@H](N)C(=O)O; Thp = NC1(C(=O)O)CCOCC1; Sar = CNCC(=O)O

How the values were obtained:
[1] = Pharmacokinetic determination in rats (IV); details: male, SD, rat, plasma, 1 mg/kg
Experimental: (§11) SD rats were used as test animals to study the pharmacokinetic behavior of the compounds of the examples in the rats (plasma) after oral or IV administration.
Preparation of intravenous drug: PBS
(§12) The compounds of the examples were weighed and dissolved in this solution, vortexed, ultrasonicated for 5 min, and filtered through a 0.22 μm filter membrane to obtain colorless clear solutions with a concentration of 0.2 mg/mL.
(§13) 3 SD rats/group, male were fasted overnight and then respectively administered IV at a dose of 1 mg/kg and a volume of 5 mL/kg.
(§14) • Before administration and at 0.083 h, 0.25 h, 0.5 h, 1.0 h, 2.0 h, 4.0 h, 6.0 h, 8.0 h, and 24.0 h after administration (IV), 0.2 mL of blood was collected from the jugular vein, placed in an EDTA-2K test tube, and centrifuged at 6000 rpm for 6 min at 4° C. to separate plasma, which was stored at −20° C.; and the rats were fed 4 h after administration.
(§15) 1) Acetonitrile (200 μL) was added to the plasma sample (50 μL) for precipitation, and the mixture was mixed and centrifuged at 4500 rpm for 15 min.
(§16) 2) The treated supernatant solution was taken and subjected to LC/MS/MS to analyze the concentrations of the test compounds. LC/MS/MS analysis instrument: AB Sciex Triple Quad 6500+.
(§17) • Liquid phase conditions: Shimadzu LC-30AD pump • Chromatographic column: HALO 90A PFP 2.7 μm 2.1×30 mm, mobile phase: liquid A: 5% acetonitrile aqueous solution (0.1% formic acid), and liquid B: an aqueous solution of 95% acetonitrile (0.1% formic acid) • Flow rate: 0.6 mL/min • Elution time: 0-2.0 min, the eluent was as follows:
(§18) The main pharmacokinetic parameters were calculated using WinNonlin 8.1.

in vivo = details: male, SD, rat, iv, 1 mg/kg
Experimental: as §11
Preparation of intravenous drug: PBS
as §12, §13, §14, §15, §16, §17, §18

[2] = Stability in plasma (human); type: in vitro ADME; details: human, plasma
Experimental: (§1) To study the stability of the compounds of the examples in the plasmas of mice, rats, dogs and humans.
(§2) Preparation of plasma: Animal or human whole blood was collected, then put into a test tube containing an anticoagulant, and centrifuged at 3500 rpm for 10 min, and the upper pale yellow plasma was collected; • working solution of 10 μM test compound: a stock solution was prepared with DMSO, and the working solution was prepared with 100 mM phosphate buffer; • working solution of 10 μM positive control: • procaine: 2.36 mg of procaine was weighed and diluted into a 10 mM stock solution with 1 mL of DMSO. 10 μL of the 10 mM stock solution was pipetted into 1 mL of 100 mM phosphate buffer, such that the final concentration was 100 μM; and • enalapril: 4.93 mg of enalapril was weighed and diluted into a 10 mM stock solution with 1 mL of DMSO; and 10 μL of the 10 mM stock solution was pipetted into 1 mL of 100 mM phosphate buffer, such that the final concentration was 100 μM.
(§3) In a 96-well plate, 285 μL of plasma and 15 μL of 10 μM compound (test compound, and positive control) were successively added and incubated at 37° C.
(§4) 40 μL was taken at 0, 15, 30, 60, 90, and 120 min (sampling points could be fine-tuned), respectively, and 160 μL of an acetonitrile stop solution containing an internal standard was added.
(§5) After centrifugation (3500 rpm, 10 min), 50 μL of the supernatant was taken, diluted by adding 50 μL of DDH2O, and then injected for LC-MS/MS.
(§6) • Instrument: Shimadzu LC-20 AD • Chromatographic column: Phenomenex Gemiu® C18 (50*4.6 mm, 5 μm particle size) • Mobile phase: A: acetonitrile, B: 0.1% formic acid solution • Elution gradient: […]: 5% A→95% A, 2.0-2.1 min: […] • Flow rate: 0.8 mL/min • Run time: 5.0 min • Injection volume: 5 μL
(§7) • Instrument: API4000 liquid chromatography mass spectrometer, AB, US • Ion source: electrospray ionization source (ESI) • Drying gas: N2, temperature 500° C. • Electrospray voltage: 5500V • Detection mode: positive ion detection • Scan mode: multi reaction monitoring (MRM) mode • Scan time: 0.1 s
(§8) All calculations were carried out using Microsoft Excel. The peak area ratio was determined by an extracted ion chromatogram.
(§9) The residual percentage of the compound at each time point was calculated by the following equation: Residual percentage at t hours (%)=peak area ratio at t hours/peak area ratio at 0 hour×100%, in which the peak area ratio at t hr was the peak area ratio of the […] at t min; and • the slope value k was determined by linear regression on the natural logarithm of the curve of the residual percentage of the parent drug versus the incubation time.
(§10) In vitro half-life (in vitro t1/2) was determined by the slope value: […]

[3] = test system: IL23-induced rat otitis model; experiment: In vivo pharmacodynamics in IL23-induced rat otitis model (ear thickening); parameters: species or system SD rats; details: 10 mg/kg, gavage
Excerpt: To evaluate the in vivo efficacy of the compounds in an IL23-induced rat otitis model.
SD rats, 6-8 weeks old, male, purchased from Jiangsu GemPharmatech Co., Ltd.
• a. […]

[4] = test system: activation of STAT3 phosphorylation by hIL23 in DB cells; experiment: Blocking the activation of STAT3 phosphorylation by hIL23 in DB cells (p-STAT3 ELISA); type: cell-based, Human; details: DB cells stimulated by rhIL-23 0.5 nM, half an hour; read-out: pStat3 IC50
Experimental: To determine the inhibitory activity of the compounds of the present disclosure on the activation of STAT3 phosphorylation by hIL23 in DB cells
The compounds produced above were added to DB (ATCC Cat #CRL-2289) cells to inhibit the signal transduction of rhIL-23 cytokine. The screening of compounds was carried out by a multi-well plate (suitable for ELISA assay). Generally, in the presence of some of the above compounds of the present disclosure, 6.25×10^6 cells/ml of DB cells were stimulated by rhIL-23 (0.5 nM, R&D SYSTEMS) in RPMI medium (Invitrogen) containing 10% of FBS, and after half an hour, lysis was carried out on ice using 50 μL of 2×lysis buffer (CST). The content of p-STAT3 in the lysate was determined by PathScan Phospho-Stat3 (Tyr705) Sandwich ELISA Kit (CST Cat #7300C), so as to calculate the activity of the compounds of the present disclosure in blocking rhIL23 signal transduction in DB cells.
The inhibition rate was calculated as follows: […]
By using log (inhibitor) vs. response—Variable slope (four parameters) in Graphpad, the data of ELISA experiment results were subjected to non-linear regression fitting to fit a curve and obtain the IC50 value.

in vitro = in vitro ADME; details: plasma
Experimental: as §1, §2, §3, §4, §5, §6, §7, §8, §9, §10

[5] = Pharmacokinetic determination in beagle dogs (IV); details: male, dog, plasma, 0.2 mg/kg
Experimental: Beagle dogs were used as test animals to study the pharmacokinetic behavior of the compounds of the examples in the rats (plasma) after IV administration.
3 beagle dogs/group, male, from Yizheng Anlimao Biotechnology Co., Ltd.
The compounds of the examples were weighed and dissolved in this solution, vortexed, ultrasonicated for 5 min, and filtered through a 0.22 μm filter membrane to obtain colorless clear solutions with a concentration of 0.1 mg/mL.
3 beagle dogs/group, male were fasted overnight and then respectively administered IV at a dose of 0.2 mg/kg and a volume of 2 mL/kg.
1) Acetonitrile (200 μL) was added to the plasma sample (50 L) for precipitation, and the mixture was mixed and centrifuged at 4500 rpm for 15 min.
as §16
Premier Peptide CSH C18 130A 1.7 μm 2.1*100 mm Column, mobile phase: liquid A: 5% acetonitrile aqueous solution (0.1% formic acid), and liquid B: an aqueous solution of 95% acetonitrile (0.1% formic acid) • Flow rate: 0.6 mL/min • Elution time: 0-2.0 min, the eluent was as follows:
as §18

## CC(=O)NCCCC[C@@H]1NC(=O)[C@H](Cc2c[nH]c3c(C)cccc23)NC(=O)[C@H]([C@@H](C)O)NC(=O)[C@H](CC(N)=O)NC(=O)[C@@H](NC(C)=O)C(C)(C)SSC(C)(C)[C@@H](C(=O)N[C@@H](Cc2ccc(OCCN)cc2)C(=O)N[C@@H](Cc2ccc3ccccc3c2)C(=O)NC2(C(=O)N[C@@H](CCC(=O)O)C(=O)N[C@@H](CC(N)=O)C(=O)N[C@@H](Cc3cccnc3)C(=O)N(C)CCNC(=O)CCOCCOCC[N+](C)(C)CCNC(=O)COCCOCCNC(=O)COCCOCCNC(=O)CC[C@H](NC(=O)CCCCCCCCCCCCCCC(=O)O)C(=O)O)CCOCC2)NC1=O [Example 1] (Ac-[Pen]NT[Trp(7-Me)]K(Ac)[Pen][AEF][2Nal][Thp]EN[3Pal]-X1; disulfide 1-6)
[1]
  AUC(0-inf): 46700 ng·h/mL
  AUC(0-t): 45400 ng·h/mL
  C0: 10300 ng/mL
  MRT: 6.1 h
  clearance: 0.35 mL/min/kg
In vivo
  half-life: 4.9 h
[2]
  half-life at 0.5 μM: 64.6 h
  remaining at 4 h, 0.5 µM: 94.3%
[3]; QD
  Inhibition rate on Day 4 (ear thickening): 51.22%
[4]
  IC50: 0.025 nM
In vitro; dog
  half-life at 0.5 μM: 148 h
  remaining at 4 h, 0.5 µM: 99.7%
In vitro; mouse
  half-life at 0.5 μM: 32 h
  remaining at 4 h, 0.5 µM: 93.8%
In vitro; rat
  half-life at 0.5 μM: 75.7 h
  remaining at 4 h, 0.5 µM: 98.7%

## CC(=O)NCCCC[C@@H]1NC(=O)[C@H](Cc2c[nH]c3c(C)cccc23)NC(=O)[C@H]([C@@H](C)O)NC(=O)[C@H](CC(N)=O)NC(=O)[C@@H](NC(C)=O)C(C)(C)SSC(C)(C)[C@@H](C(=O)N[C@@H](Cc2ccc(OCCN)cc2)C(=O)N[C@@H](Cc2ccc3ccccc3c2)C(=O)NC2(C(=O)N[C@@H](CCC(=O)O)C(=O)N[C@@H](CC(N)=O)C(=O)N[C@@H](Cc3cccnc3)C(=O)N(C)CC(N)=O)CCOCC2)NC1=O [PN-235, reference compound] (Ac-[Pen]NT[Trp(7-Me)]K(Ac)[Pen][AEF][2Nal][Thp]EN[3Pal][Sar]-NH2; disulfide 1-6 (inferred); N-terminus and C-terminus assumed)
[1]
  AUC(0-inf): 2670 ng·h/mL
  AUC(0-t): 2620 ng·h/mL
  C0: 4290 ng/mL
  MRT: 0.9 h
  clearance: 6.2 mL/min/kg
  half-life: 0.7 h
[3]; BID
  Inhibition rate on Day 4 (ear thickening): 55.35%
[5]
  AUC(0-inf): 2030 ng·h/mL
  AUC(0-t): 2020 ng·h/mL
  C0: 1250 ng/mL
  MRT: 3.1 h
  clearance: 1.68 mL/min/kg
  half-life: 4.1 h
